Results from patent publication US6087377A (priority 1999, dated 2000).
Entries after “also recorded” stand apart in the source; their conditions may differ. Where a name gives a salt, the structure may show the parent alone. Read-outs that look alike come from different tables or passages of the source.

Columns and labels:
beta-glucuronidase = details: cited from earlier work
[1] = tested on: WI-38 normal human diploid lung fibroblasts; assay: Growth inhibition of WI-38 normal human diploid lung fibroblasts; type: cell-based; details: WI-38 fibroblasts
p53 [2] = assay: Western immunoblot: p53 level in HT-29 cells; type: cell-based, human; details: HT-29, mutant (inactive) p53, Western immunoblot
[3] = tested on: WI-38 normal human diploid lung fibroblasts; details: normal WI-38 human fibroblasts; cited from earlier work
p21 [4] = assay: p21 detection in HT-29 cells; type: cell-based, human
PCNA [5] = assay: PCNA level in HT-29 cells; type: cell-based, human
HT-29 cells [6] = assay: Flow cytometric cell cycle arrest and apoptosis in HT-29 cells; type: cell-based, human
HT-29 cells [7] = assay: Growth inhibition of human colon adenocarcinoma HT-29 cells; type: cell-based
PCNA [8] = assay: PCNA level in WI-38 fibroblasts; type: cell-based, human; details: WI-38, IC90 of SN-38 (40 nM)
[9] = tested on: WI-38 normal human diploid lung fibroblasts; assay: Flow cytometry cell cycle arrest, apoptosis and recovery in WI-38 fibroblasts; type: cell-based
p53 [10] = assay: p53 level in WI-38 fibroblasts; type: cell-based, human; details: WI-38, IC90 of SN-38 (40 nM)
HT-29 cells [11] = details: HT-29 human adenocarcinoma cells; Bacon et al. 1996 abstract; cited from earlier work
p21 [12] = assay: p21 level in WI-38 fibroblasts; type: cell-based, human; details: WI-38, following p53 and PCNA increase
cells = details: droloxifene, Hasmann et al. 1994; cited from earlier work
[13] = tested on: proliferating cell nuclear antigen (PCNA); assay: Western immunoblot and immunohistochemistry for PCNA in irinotecan-treated hamster intestinal epithelium; details: Western immunoblot
cancer patients = details: cited from earlier work
[14] = tested on: proliferating cell nuclear antigen (PCNA); details: hamster, in vivo
intestinal epithelium [15] = details: hamster, in vivo
intestinal epithelium [16] = assay: Irinotecan toxicity in the Syrian hamster: intestinal epithelium, diarrhea, weight loss
humans = details: loperamide, aggressive high-dose co-therapy, 2 hr intervals at onset of diarrhea; cited from earlier work
[17] = tested on: MCF-7 breast cancer cells; details: tamoxifen, Otto et al. 1996, cited from earlier work
WI-38 cells = assay: Effect of tamoxifen on replication of SN-38-treated normal WI-38 cells; type: cell-based, human; details: WI-38 (non-tumor) pretreated with tamoxifen prior to and during SN-38 exposure
hamsters = assay: Tamoxifen pre- and co-treatment of CPT-11-treated hamsters: weight loss and survival; type: in vivo, hamster
hamster colon = assay: Tamoxifen pre- and co-treatment of CPT-11-treated hamsters: colon morphology and function; type: in vivo; details: tamoxifen pre- and co-treatment with CPT-11
cyclin D1/cdk4 = details: thought to be the mechanism; Watts et al. 1995; cited from earlier work

Compound: O=C(O)[C@H]1O[C@@H](Oc2cc3oc(-c4ccccc4)cc(=O)c3c(O)c2O)[C@H](O)[C@@H](O)[C@@H]1O [Baicalin, baicalin]
- inhibition of beta-glucuronidase (presumed anti-diarrheal mechanism) (beta-glucuronidase): has similar activity

Compound: CCc1c2c(nc3ccc(O)cc13)-c1cc3c(c(=O)n1C2)COC(=O)[C@]3(O)CC [SN-38]
- IC90 [1]: 40 nM
- levels of p53 (p53 [2]): upregulated
- cell cycle arrest [3]: arrested in S/G2
- p21 (p21 [4]): p21 is not upregulated; we have been unable to detect p21
- PCNA levels (PCNA [5]): increased
- apoptosis / recovery from arrest (HT-29 cells [6]; HT-29, after arrest): cells did not recover but instead underwent programmed cell death (apoptosis)
- cell cycle arrest (flow cytometry) (HT-29 cells [6]; HT-29, growth-arrested cells): replication was blocked in the G2 phase of the cell cycle
- IC90 (HT-29 cells [7]): 10 nM
- inhibition at 0.01 µM (HT-29 cells [7]; SN-38 10 nM): > 90%
- PCNA levels (PCNA [8]): increased along with PCNA
- apoptosis ([9]; WI-38, IC90 of SN-38 (40 nM)): did not undergo apoptosis
- cell cycle arrest (flow cytometry) ([9]; WI-38, IC90 of SN-38 (40 nM)): arrested in the S phase of the cell cycle
- re-entry into the cell cycle ([9]; WI-38, when drug was removed): slowly re-entered the cell cycle when drug was removed
- levels of p53 (wild type) (p53 [10]): increased
- cell cycle arrest and apoptosis (HT-29 cells [11]): arrest in G2 /M followed by apoptosis
- p21 (p21 [12]): followed by increases in p21

Compound: CC/C(=C(/c1ccc(OCCN(C)C)cc1)c1cccc(O)c1)c1ccccc1 [droloxifene]
- cell cycle block (cells): block cells in the G1 phase of the cell cycle in a manner similar to tamoxifen

Compound: CCc1c2c(nc3ccc(OC(=O)N4CCC(N5CCCCC5)CC4)cc13)-c1cc3c(c(=O)n1C2)COC(=O)[C@]3(O)CC [irinotecan, irinotecan hydrochloride]
- time of detection of PCNA elevation [13]: 1 days
- major dose-limiting toxicity (cancer patients; cancer patients): severe delayed chronic grade 3-4 diarrhea
- intestinal toxicity (diarrhea) (cancer patients; humans, CAMPTOSAR Injection): potentially life-threatening intestinal toxicity (diarrhea)
- antitumor activity (cancer patients; variety of tumor types): activity against a variety of tumor types, and in particular refractory colorectal tumors
- PCNA elevation (Western immunoblot) [14]: time-dependent elevation in proliferating cell nuclear antigen (PCNA)
- PCNA immunohistochemistry [14]: increase in the number of labelled epithelial cells and labelling intensity in treated animals, with labelled cells positionally located farther towards the villus tip compared to controls
- colon epithelium histology (intestinal epithelium [15]): thinned and vacuolated
- crypt cell replication (bromodeoxyuridine labelling) (intestinal epithelium [15]): reduction in crypt cell replication
- diarrhea and weight loss (intestinal epithelium [15]): coincident with diarrhea and weight loss
- structural integrity of the mucosal epithelium (intestinal epithelium [15]): time-dependent loss of structural integrity of the mucosal epithelium in the jejunum and ileum; villi appeared corrugated and epithelial cells lost their typical columnar morphology
- water and electrolyte loss (intestinal epithelium [15]): increased water and electrolyte loss
- toxicity to the intestinal epithelium (intestinal epithelium [16]; coincident with onset of delayed diarrhea): considerable toxicity to the intestinal epithelium
- crypts / epithelial cells (intestinal epithelium [16]; histology): apparent reduction of crypts and/or a loss of epithelial cells

Compound: CN(C)C(=O)C(CCN1CCC(O)(c2ccc(Cl)cc2)CC1)(c1ccccc1)c1ccccc1 [loperamide]
- control of diarrhea (humans): successful in most cases

Compound: CC/C(=C(\c1ccccc1)c1ccc(OCCN(C)C)cc1)c1ccccc1 [tamoxifen]
- cell cycle block [17]: blocks cell cycle progression in G0 /G1
- cell cycle block ([17]; listed as Tamoxifen): block in the G0 /G1 phase of the cell cycle
- recovery of replication after SN-38 (WI-38 cells): regained replication kinetics to a greater extent; also recorded: enhances the recovery of a non-tumor cell line from SN-38-induced inhibition
- weight loss associated with CPT-11 administration (hamsters; tamoxifen pre- and co-treatment): reduced; also recorded: reduces weight loss attributable to diarrhea
- survival (hamsters; tamoxifen pre- and co-treatment with CPT-11): survival increased
- morphology and function of the colon (hamster colon): improvement in morphology and function of the hamster colon; also recorded: reduces the colonic pathology and physiological effects
- repression of G1-specific protein kinase activity (cyclin D1/cdk4): repression of G1 -specific protein kinase activity
